# Laboratory results: US8987252B2, “Aryloxy- and heteroaryloxy-substituted tetrahydrobenzazepines and use thereof to block reuptake of norepinephrine, dopamine, and serotonin” (Albany Molecular Research, Inc., priority 2007, dated 2015)
# Where a name gives a salt, the structure may show the parent alone.
row,Compound,melting point [°C]
1,"Cc1ccc(OC2CCN(C)Cc3cc(-c4cccnn4)ccc32)cc1 (centres unmarked) (as salt: tartrate) [Example 3, 2-methyl-8-(pyridazin-3-yl)-5-(p-tolyloxy)-2,3,4,5-tetrahydro-1H-benzo[c]azepine]",104 to 106
2,"CN1CCC(Oc2cccc(F)c2)c2ccc(-c3cccnn3)cc2C1 (centres unmarked) (as salt: tartrate) [Example 13, 5-(3-fluorophenoxy)-2-methyl-8-(pyridazin-3-yl)-2,3,4,5-tetrahydro-1H-benzo[c]azepine]",96 to 98
3,"CN1CCC(Oc2cc(F)cc(F)c2)c2ccc(-c3cccnn3)cc2C1 (centres unmarked) (as salt: tartrate) [Example 5, 5-(3,5-difluorophenoxy)-2-methyl-8-(pyridazin-3-yl)-2,3,4,5-tetrahydro-1H-benzo[c]azepine]",94 to 96
4,"CN1CCC(Oc2ccc(F)cc2F)c2ccc(-c3cccnn3)cc2C1 (centres unmarked) (as salt: tartrate) [Example 9, 5-(2,4-Difluorophenoxy)-2-methyl-8-(pyridazin-3-yl)-2,3,4,5-tetrahydro-1H-benzo[c]azepine]",98 to 100
5,"CN1CCC(Oc2ccc(Cl)cc2)c2ccc(-c3cccnn3)cc2C1 (centres unmarked) (as salt: tartrate) [Example 2, 5-(4-chlorophenoxy)-2-methyl-8-(pyridazin-3-yl)-2,3,4,5-tetrahydro-1H-benzo[c]azepine]",106 to 108
6,"CN1CCC(Oc2ccccc2)c2ccc(-c3cccnn3)cc2C1 (centres unmarked) (as salt: tartrate) [Example 10, 2-methyl-5-phenoxy-8-(pyridazin-3-yl)-2,3,4,5-tetrahydro-1H-benzo[c]azepine]",98 to 100
7,"CN1CCC(Oc2ccc(F)c(F)c2)c2ccc(-c3cccnn3)cc2C1 (centres unmarked) (as salt: tartrate) [Example 8, 5-(3,4-Difluorophenoxy)-2-methyl-8-(pyridazin-3-yl)-2,3,4,5-tetrahydro-1H-benzo[c]azepine]",100 to 102
8,"CN1CCC(Oc2ccc3ccccc3c2)c2ccc(-c3cccnn3)cc2C1 (centres unmarked) (as salt: tartrate) [Example 1, 2-methyl-5-(naphthalen-2-yloxy)-8-(pyridazin-3-yl)-2,3,4,5-tetrahydro-1H-benzo[c]azepine]",122 to 124
9,"CN1CCC(Oc2ccccc2F)c2ccc(-c3cccnn3)cc2C1 (centres unmarked) (as salt: tartrate) [Example 12, 5-(2-fluorophenoxy)-2-methyl-8-(pyridazin-3-yl)-2,3,4,5-tetrahydro-1H-benzo[c]azepine]",96 to 98
10,"CN1CCC(Oc2ccc(Cl)c(Cl)c2)c2ccc(-c3cccnn3)cc2C1 (centres unmarked) (as salt: tartrate) [Example 7, 5-(3,4-Dichlorophenoxy)-2-methyl-8-(pyridazin-3-yl)-2,3,4,5-tetrahydro-1H-benzo[c]azepine]",102 to 104
11,"CN1CCC(Oc2ccc(C#N)cc2)c2ccc(-c3cccnn3)cc2C1 (centres unmarked) (as salt: tartrate) [Example 6, 4-(2-Methyl-8-(pyridazin-3-yl)-2,3,4,5-tetrahydro-1H-benzo[c]azepin-5-yloxy)benzonitrile]",94 to 96
12,"CN1CCC(Oc2cccnc2)c2ccc(-c3cccnn3)cc2C1 (centres unmarked) (as salt: tartrate) [Example 11, 2-methyl-8-(pyridazin-3-yl)-5-(pyridin-3-yloxy)-2,3,4,5-tetrahydro-1H-benzo[c]azepine]",120 to 123
13,"CN1CCC(Oc2ccc(OC(F)(F)F)cc2)c2ccc(-c3cccnn3)cc2C1 (centres unmarked) (as salt: tartrate) [Example 4, 2-methyl-8-(pyridazin-3-yl)-5-(4-(trifluoromethoxy)phenoxy)-2,3,4,5-tetrahydro-1H-benzo[c]azepine]",104 to 106

# Continued, values first:
row,melting point [°C],Compound
1,98 to 100,"CN1CCC(Oc2c(F)cccc2F)c2ccc(-c3cccnn3)cc2C1 (centres unmarked) (as salt: tartrate) [Example 55, 5-(2,6-difluorophenoxy)-2-methyl-8-(pyridazin-3-yl)-2,3,4,5-tetrahydro-1H-benzo[c]azepine]"
2,104 to 106,"CN1CCC(Oc2ccccc2Cl)c2ccc(-c3cccnn3)cc2C1 (centres unmarked) (as salt: tartrate) [Example 35, 5-(2-chlorophenoxy)-2-methyl-8-(pyridazin-3-yl)-2,3,4,5-tetrahydro-1H-benzo[c]azepine]"
3,100 to 102,"CN1CCC(Oc2cccc3ccccc23)c2ccc(-c3cccnn3)cc2C1 (centres unmarked) (as salt: tartrate) [Example 15, 2-Methyl-5-(naphthalen-1-yloxy)-8-(pyridazin-3-yl)-2,3,4,5-tetrahydro-1H-benzo[c]azepine]"
4,108 to 110,"CN1CCC(Oc2ccccc2)c2ccc(-c3ncccn3)cc2C1 (centres unmarked) (as salt: tartrate) [Example 49, 2-Methyl-5-phenoxy-8-(pyrimidin-2-yl)-2,3,4,5-tetrahydro-1H-benzo[c]azepine]"
5,120 to 122,"CN1CCC(Oc2ccc3ccccc3c2)c2ccc(-c3cccnn3)cc2C1 (centres unmarked) (as salt: tartrate) [Example 18, 5-(naphthalen-2-yloxy)-2-methyl-8-(pyridazin-3-yl)-2,3,4,5-tetrahydro-1H-benzo[c]azepine]"
6,115 to 118,"Cc1ccc(-c2ccc3c(c2)CNCCC3Oc2ccccc2)nn1 (centres unmarked) (as salt: tartrate) [Example 32, 8-(6-methylpyridazin-3-yl)-5-phenoxy-2,3,4,5-tetrahydro-1H-benzo[c]azepine]"
7,100 to 102,"CN1CCC(Oc2ccccc2Cl)c2ccc(-c3cccnn3)cc2C1 (centres unmarked) (as salt: tartrate) [Example 34, 5-(2-chlorophenoxy)-2-methyl-8-(pyridazin-3-yl)-2,3,4,5-tetrahydro-1H-benzo[c]azepine]"
8,112 to 114,"CN1CCC(Oc2cccc(F)c2F)c2ccc(-c3cccnn3)cc2C1 (centres unmarked) (as salt: tartrate) [Example 51, 5-(2,3-difluorophenoxy)-2-methyl-8-(pyridazin-3-yl)-2,3,4,5-tetrahydro-1H-benzo[c]azepine]"
9,110 to 112,"CN1CCC(Oc2ccc(C#N)cc2)c2ccc(-c3cccnn3)cc2C1 (centres unmarked) (as salt: tartrate) [Example 53, 5-(4-cyanophenoxy)-2-methyl-8-(pyridazin-3-yl)-2,3,4,5-tetrahydro-1H-benzo[c]azepine]"
10,102 to 104,"CN1CCC(Oc2cc(F)ccc2F)c2ccc(-c3cccnn3)cc2C1 (centres unmarked) (as salt: tartrate) [Example 54, 5-(2,5-difluorophenoxy)-2-methyl-8-(pyridazin-3-yl)-2,3,4,5-tetrahydro-1H-benzo[c]azepine]"
11,113 to 115,"CN1CCC(Oc2cccc(C#N)c2)c2ccc(-c3cccnn3)cc2C1 (centres unmarked) (as salt: tartrate) [Example 52, 5-(3-cyanophenoxy)-2-methyl-8-(pyridazin-3-yl)-2,3,4,5-tetrahydro-1H-benzo[c]azepine]"
12,120 to 122,"CN1CCC(Oc2cc(F)cc(F)c2)c2ccc(-c3cccnn3)cc2C1 (centres unmarked) (as salt: tartrate) [Example 14, 5-(3,5-difluorophenoxy)-2-methyl-8-(pyridazin-3-yl)-2,3,4,5-tetrahydro-1H-benzo[c]azepine]"
13,120 to 122,"CN1CCC(Oc2ccc3cccnc3c2)c2ccc(-c3cccnn3)cc2C1 (centres unmarked) (as salt: tartrate) [Example 33, 2-methyl-8-(pyridazin-3-yl)-5-(quinolin-7-yloxy)-2,3,4,5-tetrahydro-1H-benzo[c]azepine]"
